{"source": "patent US6855512B2", "about": "“Methods for identifying inhibitors of cytochrome P450RAI” (Allergan, Inc., priority 2000, dated 2005)", "key": {"RARα": {"biological_target": "T1, RARα (Homo sapiens, UniProt P10276)", "T1 sequence (P10276 1-462)": "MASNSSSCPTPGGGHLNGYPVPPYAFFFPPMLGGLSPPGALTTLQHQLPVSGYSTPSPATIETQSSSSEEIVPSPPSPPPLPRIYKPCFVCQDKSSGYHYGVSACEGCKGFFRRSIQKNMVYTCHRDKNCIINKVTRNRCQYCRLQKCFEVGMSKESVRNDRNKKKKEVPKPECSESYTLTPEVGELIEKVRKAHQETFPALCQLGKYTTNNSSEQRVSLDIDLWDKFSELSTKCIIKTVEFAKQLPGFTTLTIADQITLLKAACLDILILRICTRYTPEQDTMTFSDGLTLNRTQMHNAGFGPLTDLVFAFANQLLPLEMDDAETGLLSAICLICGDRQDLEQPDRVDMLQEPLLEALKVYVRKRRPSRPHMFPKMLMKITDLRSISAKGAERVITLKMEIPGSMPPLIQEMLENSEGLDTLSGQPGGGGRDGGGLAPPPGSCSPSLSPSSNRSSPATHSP", "assay": "ligand binding assay, RARα", "details": "Kd line of EC50/(EFFICACY)/Kd, K = thousand, read-out: RAR α Kd", "description": "(§1) Assays described below measure the ability of a compound to bind to, and/or activate various retinoid receptor subtypes. When in these assays a compound binds to a given receptor subtype and activates the transcription of a reporter gene through that subtype, then the compound is considered an agonist of that receptor subtype. […] In the below described assays the ability of the compounds to bind to RARα, RARβ, RARγ, RXRα, RXRβ and RXRγ receptors, and the ability or inability of the compounds to activate transcription of a reporter gene through these receptor subtypes can be tested.\n(§2) The results obtained in this assay are expressed in EC50 numbers, as they are also in the chimeric receptor transactivation assay. The results of ligand binding assay are expressed in Kd numbers."}, "RARβ [1]": {"biological_target": "T2, RARβ (Homo sapiens, UniProt P10826)", "T2 sequence (P10826 1-455)": "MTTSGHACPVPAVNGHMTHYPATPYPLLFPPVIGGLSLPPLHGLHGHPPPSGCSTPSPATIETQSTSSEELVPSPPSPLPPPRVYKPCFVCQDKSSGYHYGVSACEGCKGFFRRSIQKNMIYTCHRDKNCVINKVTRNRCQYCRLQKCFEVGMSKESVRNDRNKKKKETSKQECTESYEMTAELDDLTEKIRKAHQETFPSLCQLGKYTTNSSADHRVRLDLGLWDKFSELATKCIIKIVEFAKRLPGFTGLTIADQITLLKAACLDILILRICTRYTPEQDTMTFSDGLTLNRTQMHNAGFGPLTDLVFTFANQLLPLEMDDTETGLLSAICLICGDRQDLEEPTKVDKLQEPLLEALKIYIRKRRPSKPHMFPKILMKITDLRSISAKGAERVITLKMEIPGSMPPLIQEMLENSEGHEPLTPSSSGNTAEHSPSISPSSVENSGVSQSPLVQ", "assay": "ligand binding assay, RARβ", "details": "Kd line of EC50/(EFFICACY)/Kd, K = thousand, read-out: RAR β Kd", "description": "as §1, §2"}, "RARβ [2]": {"biological_target": "T3, RARβ (Homo sapiens, UniProt P10826)", "T3 sequence (P10826 183-417 limits assumed)": "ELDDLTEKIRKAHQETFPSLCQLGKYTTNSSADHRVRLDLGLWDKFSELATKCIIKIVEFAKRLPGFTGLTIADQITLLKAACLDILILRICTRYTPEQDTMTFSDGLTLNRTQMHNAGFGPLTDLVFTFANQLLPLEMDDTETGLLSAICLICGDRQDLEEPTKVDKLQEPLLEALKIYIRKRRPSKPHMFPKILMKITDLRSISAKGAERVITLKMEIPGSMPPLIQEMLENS", "assay": "chimeric receptor transactivation assay, RARβ", "format": "cell-based", "details": "EC50 line of EC50/(EFFICACY)/Kd, read-out: RAR β EC50", "description": "as §1, §2"}, "RARγ [3]": {"biological_target": "T4, RARγ (Homo sapiens, UniProt P13631)", "T4 sequence (P13631 1-454)": "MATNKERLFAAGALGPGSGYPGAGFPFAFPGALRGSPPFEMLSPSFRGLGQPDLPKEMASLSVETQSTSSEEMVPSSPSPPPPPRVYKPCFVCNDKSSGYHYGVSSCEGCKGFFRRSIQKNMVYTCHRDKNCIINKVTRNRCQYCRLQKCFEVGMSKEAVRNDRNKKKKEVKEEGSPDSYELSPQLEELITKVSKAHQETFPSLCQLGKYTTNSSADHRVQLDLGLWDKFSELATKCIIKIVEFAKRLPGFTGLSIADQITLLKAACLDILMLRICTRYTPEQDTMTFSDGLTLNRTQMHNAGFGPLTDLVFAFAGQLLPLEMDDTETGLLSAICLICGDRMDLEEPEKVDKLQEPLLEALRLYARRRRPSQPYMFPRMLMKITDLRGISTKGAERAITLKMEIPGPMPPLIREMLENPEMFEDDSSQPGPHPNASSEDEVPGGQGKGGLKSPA", "assay": "ligand binding assay, RARγ", "details": "Kd line of EC50/(EFFICACY)/Kd, K = thousand, read-out: RAR γ Kd", "description": "as §1, §2"}, "RARγ [4]": {"biological_target": "T5, RARγ (Homo sapiens, UniProt P13631)", "T5 sequence (P13631 185-454 limits assumed)": "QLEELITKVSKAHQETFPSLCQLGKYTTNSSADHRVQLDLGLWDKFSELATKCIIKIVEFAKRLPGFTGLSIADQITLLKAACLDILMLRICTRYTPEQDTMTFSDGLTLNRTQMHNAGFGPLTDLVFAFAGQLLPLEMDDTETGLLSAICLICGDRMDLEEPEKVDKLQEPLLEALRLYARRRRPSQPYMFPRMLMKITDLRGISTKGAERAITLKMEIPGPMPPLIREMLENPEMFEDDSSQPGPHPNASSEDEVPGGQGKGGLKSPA", "assay": "chimeric receptor transactivation assay, RARγ", "format": "cell-based", "details": "EC50 line of EC50/(EFFICACY)/Kd, read-out: RAR γ EC50", "description": "as §1, §2"}}}
{"smiles": "CC1(C)CC(C)(C)c2cc(C#Cc3ccc(C(=O)O)cc3)ccc2O1", "note": "[Compound 201]", "values": [{"measurement": "Kd", "setting": "RARα", "result": 90, "unit": "nM"}, {"measurement": "Kd", "setting": "RARβ [1]", "result": 1100, "unit": "nM"}, {"measurement": "EC50", "setting": "RARβ [2]", "result": "> 10000", "unit": "nM"}, {"measurement": "Kd", "setting": "RARγ [3]", "result": 4390, "unit": "nM"}, {"measurement": "EC50", "setting": "RARγ [4]", "result": 180, "unit": "nM"}]}
